Data reported in US6706663B2, “Herbicidal 3-heterocyclic substituted benzisothiazole and benzisoxazole compounds” (Wyeth, priority 2000, dated 2004).

Columns and labels:
[1] = test system: ABUTH (Abutilon theophrasti); assay: Postemergence herbicidal evaluation; assay type: in vivo, Medic.; conditions: postemergence
Procedure, shortened: (§1)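 Visual 0–9 injury scores versus control plants, covering stand, vigour, malformation, size, chlorosis and general appearance, taken four to five weeks post-spray and averaged over replicate tests. Plants were sprayed at roughly two weeks old and held on greenhouse benches.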

[2] = test system: AMBEL (Ambrosia artemisifolia); assay: Postemergence herbicidal evaluation; assay type: in vivo, L.; conditions: postemergence
Procedure, shortened: as §1

[3] = test system: CASOB (Cassia obtusifolia); assay: Postemergence herbicidal evaluation; assay type: in vivo, L.; conditions: postemergence
Procedure, shortened: as §1

[4] = test system: CHEAL (Chenopodium album); assay: Postemergence herbicidal evaluation; assay type: in vivo, L.; conditions: postemergence
Procedure, shortened: as §1

GALAP (Galium aparine) = assay: Postemergence herbicidal evaluation; assay type: in vivo; conditions: postemergence
Procedure, shortened: as §1

[5] = test system: IPOHE (Ipomoea hederacea); assay: Postemergence herbicidal evaluation; assay type: in vivo, (L.) Jacq.; conditions: postemergence
Procedure, shortened: as §1

[6] = test system: ECHCG (Echinochloa crus-galli); assay: Postemergence herbicidal evaluation; assay type: in vivo, (L.) Beau; conditions: postemergence
Procedure, shortened: as §1

[7] = test system: GLXMAW (Soybean, Williams); assay: Postemergence herbicidal evaluation; assay type: in vivo, Glycine max, (L.) Merr. cv Williams; conditions: postemergence
Procedure, shortened: as §1

ORYSAT (Rice, Tebonnet) [8] = assay: Postemergence herbicidal evaluation; assay type: in vivo, Oryza sativa, (L.) Tebonnet; conditions: postemergence
Procedure, shortened: as §1

[9] = test system: TRZAWR (Wheat, Winter, cv Riband); assay: Postemergence herbicidal evaluation; assay type: in vivo, Triticum aestivum; conditions: postemergence
Procedure, shortened: as §1

ZEAMX (Corn, Field) [10] = assay: Postemergence herbicidal evaluation; assay type: in vivo, Zea mays, L.; conditions: postemergence
Procedure, shortened: as §1

[11] = test system: ABUTH (Abutilon theophrasti); assay: Preemergence herbicidal evaluation; assay type: in vivo, Medic.; conditions: preemergence, rated 4-5 weeks after treatment
[12] = test system: AMBEL (Ambrosia artemisifolia); assay: Preemergence herbicidal evaluation; assay type: in vivo, L.; conditions: preemergence, rated 4-5 weeks after treatment
Procedure, shortened: (§2)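 Steps: mix seeds with potting soil; plant on ~1 inch soil per cup; spray compound in aqueous acetone; hold on greenhouse benches with routine watering; rate 0–9 visually against control at 4–5 weeks.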

[13] = test system: IPOHE (Ipomoea hederacea); assay: Preemergence herbicidal evaluation; assay type: in vivo, (L.) Jacq.; conditions: preemergence, rated 4-5 weeks after treatment
[14] = test system: ECHCG (Echinochloa crus-galli); assay: Preemergence herbicidal evaluation; assay type: in vivo, (L.) Beau; conditions: preemergence, rated 4-5 weeks after treatment
Procedure, shortened: as §2

GLXMA (Soybean) = assay: Preemergence herbicidal evaluation; assay type: in vivo, Glycine max, (L.) Merr.; conditions: preemergence, rated 4-5 weeks after treatment
ZEAMX (Corn, Field) [15] = assay: Preemergence herbicidal evaluation; assay type: in vivo, Zea mays, L.; conditions: preemergence, rated 4-5 weeks after treatment
[16] = test system: ECHORC (Echinochloa oryzoides); assay: Flooded paddy, preemergence weed control; assay type: in vivo, Echinochloa oryzoides (Ard.) Fritsch.; conditions: rated 3-4 weeks after treatment, 0-9 rating scale
Procedure, shortened: (§3)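 Scoring used a 0-9 visual scale relative to control. Before that, seeds or propagules were planted shallowly in silt loam and flooded to 1.5–3 cm, a depth maintained throughout, with greenhouse care during the test.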

CYPIR (Cyperus iria) = assay: Flooded paddy, preemergence weed control; assay type: in vivo; conditions: rated 3-4 weeks after treatment, 0-9 rating scale
Procedure, shortened: as §3

[17] = test system: MOOVA (Monochoria vaginalis); assay: Flooded paddy, preemergence weed control; assay type: in vivo, Presl.; conditions: rated 3-4 weeks after treatment, 0-9 rating scale
Procedure, shortened: as §3

[18] = test system: SAGPY (Sagittaria pygmaea); assay: Flooded paddy, preemergence weed control; assay type: in vivo, L.; conditions: rated 3-4 weeks after treatment, 0-9 rating scale
Procedure, shortened: as §3

ORYSAT (Rice, Tebonnet) [19] = assay: Flooded paddy, post-transplant rice tolerance; assay type: in vivo, Oryza sativa, (L.) Tebonnet; conditions: flooded paddy, post-transplant rice; rate 0.1250 kg/ha; rated 3-4 weeks after treatment; 0-9 rating scale
Procedure, shortened: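 Steps: transplant two ten-day-old seedlings into silt loam; flood to 1.5-3 cm above soil; apply herbicide post-transplant; maintain water on greenhouse benches; rate stand, vigor, malformation, size and chlorosis on a 0-9 visual scale versus control.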

What does the source list for `COC1(c2nsc3ccc(-n4c(=O)cc(C(F)(F)F)n(C)c4=O)cc23)N=C(N(C)C)NC1=O` (stereo not shown) [Compound 93, 3-[3-[2-(dimethylamino)-4-methoxy-5-oxo-2-imidazolin-4-yl]-1,2-benzisothiazol-5-yl]-1-methyl-6-(trifluoromethyl)uracil]?
ABUTH herbicidal rating ([1]; rate 0.0320 kg/ha): 9.0; ABUTH herbicidal rating ([1]; rate 0.0620 kg/ha): 9.0; AMBEL herbicidal rating ([2]; rate 0.0320 kg/ha): 9.0; AMBEL herbicidal rating ([2]; rate 0.0620 kg/ha): 9.0; CASOB herbicidal rating ([3]; rate 0.0320 kg/ha): 7.0; CASOB herbicidal rating ([3]; rate 0.0620 kg/ha): 9.0; CHEAL herbicidal rating ([4]; rate 0.0320 kg/ha): 9.0; CHEAL herbicidal rating ([4]; rate 0.0620 kg/ha): 9.0; GALAP herbicidal rating (GALAP (Galium aparine); rate 0.0320 kg/ha): 9.0; GALAP herbicidal rating (GALAP (Galium aparine); rate 0.0620 kg/ha): 9.0; IPOHE herbicidal rating ([5]; rate 0.0320 kg/ha): 9.0; IPOHE herbicidal rating ([5]; rate 0.0620 kg/ha): 9.0; ECHCG herbicidal rating ([6]; rate 0.0320 kg/ha): 9.0; ECHCG herbicidal rating ([6]; rate 0.0620 kg/ha): 9.0; GLXMAW herbicidal rating ([7]; rate 0.0320 kg/ha): 9.0; GLXMAW herbicidal rating ([7]; rate 0.0620 kg/ha): 9.0; ORYSAT herbicidal rating (ORYSAT (Rice, Tebonnet) [8]; rate 0.0320 kg/ha): 4.0; ORYSAT herbicidal rating (ORYSAT (Rice, Tebonnet) [8]; rate 0.0620 kg/ha): 8.0; TRZAWR herbicidal rating ([9]; rate 0.0320 kg/ha): 5.5; TRZAWR herbicidal rating ([9]; rate 0.0620 kg/ha): 7.5; ZEAMX herbicidal rating (ZEAMX (Corn, Field) [10]; rate 0.0320 kg/ha): 5.5; ZEAMX herbicidal rating (ZEAMX (Corn, Field) [10]; rate 0.0620 kg/ha): 5.5; Preemergence herbicidal rating ABUTH ([11]; rate 0.0620 kg/ha): 9.0; Preemergence herbicidal rating ABUTH ([11]; rate 0.1250 kg/ha): 9.0; Preemergence herbicidal rating ABUTH ([11]; rate 0.2500 kg/ha): 9.0; Preemergence herbicidal rating AMBEL ([12]; rate 0.0620 kg/ha): 4.0; Preemergence herbicidal rating AMBEL ([12]; rate 0.1250 kg/ha): 7.0; Preemergence herbicidal rating AMBEL ([12]; rate 0.2500 kg/ha): 9.0; Preemergence herbicidal rating IPOHE ([13]; rate 0.0620 kg/ha): 3.0; Preemergence herbicidal rating IPOHE ([13]; rate 0.1250 kg/ha): 9.0; Preemergence herbicidal rating IPOHE ([13]; rate 0.2500 kg/ha): 9.0; Preemergence herbicidal rating ECHCG ([14]; rate 0.0620 kg/ha): 0.0; Preemergence herbicidal rating ECHCG ([14]; rate 0.1250 kg/ha): 0.0; Preemergence herbicidal rating ECHCG ([14]; rate 0.2500 kg/ha): 4.0; Preemergence herbicidal rating GLXMA (GLXMA (Soybean); rate 0.0620 kg/ha): 4.0; Preemergence herbicidal rating GLXMA (GLXMA (Soybean); rate 0.1250 kg/ha): 6.0; Preemergence herbicidal rating GLXMA (GLXMA (Soybean); rate 0.2500 kg/ha): 7.0; Preemergence herbicidal rating ZEAMX (ZEAMX (Corn, Field) [15]; rate 0.0620 kg/ha): 0.0; Preemergence herbicidal rating ZEAMX (ZEAMX (Corn, Field) [15]; rate 0.1250 kg/ha): 0.0; Preemergence herbicidal rating ZEAMX (ZEAMX (Corn, Field) [15]; rate 0.2500 kg/ha): 0.0; ECHORC herbicidal rating ([16]; rate 0.0320 kg/ha): 0.0; ECHORC herbicidal rating ([16]; rate 0.1250 kg/ha): 6.0; CYPIR herbicidal rating (CYPIR (Cyperus iria); rate 0.0320 kg/ha): 0.0; CYPIR herbicidal rating (CYPIR (Cyperus iria); rate 0.1250 kg/ha): 9.0; MOOVA herbicidal rating ([17]; rate 0.0320 kg/ha): 0.0; MOOVA herbicidal rating ([17]; rate 0.1250 kg/ha): 9.0; SAGPY herbicidal rating ([18]; rate 0.0320 kg/ha): 0.0; SAGPY herbicidal rating ([18]; rate 0.1250 kg/ha): 9.0; ORYSAT herbicidal rating (transplanted rice tolerance) (ORYSAT (Rice, Tebonnet) [19]): 8.0
